Experimental findings from the supplement of paper PMC5844555 are described below.

Holding throughout (test): 3' UTR reporter interaction score (median-centred robust z-score of log2 firefly/Renilla activity); higher = less repression of the 3' UTR reporter
Holding throughout (settings): HEK293T; 48 h

In one series the test system is MYC. In a few lines:
(§1)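 For the interaction score, the firefly/Renilla ratio was log-transformed, expressed as a robust z-score per plate using median and median absolute deviation, and median-centred per miRNA; a more negative score indicates interaction. These scores come from at least two independent screens, averaged. Each screen used HEK293T cells at 10,000/well in 96-well plates, co-transfected with DharmaFECT Duo carrying 100 ng luc2P 3' UTR reporter, 20 ng pRL-TK and 2.5 pmol miRNA mimic, with luciferase read at 48 h.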

The next series concerns NOTCH1. In a few lines:
as §1

The test system of a further series is FBXW7. In a few lines:
as §1

For a further series, the system named is PHOX2B. In a few lines: as §1
The next series relates to BRCA2. In a few lines:
as §1

Another series deals with MYT1L. The method in brief:
as §1

The next series has as its system ZEB2. In a few lines: as §1
The next series deals with PHF6. The method in brief:
as §1

The subject of another series is MYCN. The method in brief: as §1
The test system of the next series is HRAS. In a few lines: as §1
A further series has as its system EZH2. In a few lines: as §1
A further series has as its system RB1. In a few lines:
as §1

For another series, the system named is TP53. In a few lines:
as §1

The test system of a further series is MYB. In a few lines: as §1

On to AUAAUACAUGGUUAACCUCUUU, for which the “3' UTR reporter interaction score” value in the series on MYC was 0.024; with NOTCH1 it was 0.871; in the series with FBXW7, -0.808; with PHOX2B it was -0.62; with BRCA2, -0.764; in the series on MYT1L, 0.598. For the same sequence, the “3' UTR reporter interaction score” value was -2.7 in the series with ZEB2; -0.737 with PHF6; 1.04 with MYCN; -0.143 in the series on HRAS; 0 in the series on EZH2; -0.631 in the series on RB1. Moreover, the “3' UTR reporter interaction score” value in the series with TP53 is -0.592; with MYB, 1.01.

As for ACAAAGUGCUUCCCUUUAGAGUGU, the “3' UTR reporter interaction score” value in the series with MYC was -0.0807; in the series with NOTCH1 it was 0.486; in the series on FBXW7, -0.043; in the series on PHOX2B, 1.18; in the series on BRCA2, -0.733; in the series with MYT1L it was -0.448. The “3' UTR reporter interaction score” value is -0.058 in the series on ZEB2; -0.618 in the series with PHF6; -0.406 with MYCN; 0.36 in the series on HRAS; -0.507 in the series with EZH2; 0.896 with RB1. The “3' UTR reporter interaction score” value in the series with TP53 is -0.281; with MYB, 0.347.

As for AGGCUGCGGAAUUCAGGAC, the “3' UTR reporter interaction score” value in the series with MYC is -0.912; with NOTCH1, 0.93; with FBXW7, 0.871; in the series on PHOX2B, -0.147; with BRCA2, -1.7; in the series with MYT1L, 1.31. The “3' UTR reporter interaction score” value with ZEB2 was 2.21; with PHF6, 1.89; with MYCN it was 0.119; in the series on HRAS it was -1.18; in the series with EZH2 it was -1.27; in the series with RB1 it was 0.76. For the same sequence, the “3' UTR reporter interaction score” value was -1.78 in the series on TP53 and 0.132 with MYB.

UUAAGGCACGCGGUGAAUGCCA: the “3' UTR reporter interaction score” value in the series on MYC was -0.0293; in the series with NOTCH1 it was 0.623; with FBXW7 it was 0.904; in the series on PHOX2B it was 0.282; in the series on BRCA2, -0.0269; in the series on MYT1L, 2.33. The “3' UTR reporter interaction score” value with ZEB2 was -0.335; in the series on PHF6, -1.29; with MYCN, 0.541; in the series on HRAS, 0.364; in the series with EZH2, -1.56; in the series on RB1 it was -1.9. Also, the “3' UTR reporter interaction score” value in the series on TP53 is 0.35; with MYB, -2.16.

For the sequence AGGAAGCCCUGGAGGGGCUGGAGGU, the “3' UTR reporter interaction score” value with MYC is -0.314; in the series on NOTCH1, -1.34; in the series with FBXW7, -0.101; with PHOX2B, 1.18; with BRCA2, -1.21; with MYT1L it was 1.24. Also, the “3' UTR reporter interaction score” value with ZEB2 was -0.152; in the series on PHF6 it was -0.529; in the series with MYCN it was 1.43; in the series on HRAS, 0.456; in the series with EZH2 it was -0.359; in the series with RB1 it was -0.165. In addition, the “3' UTR reporter interaction score” value in the series with TP53 is 0.127; in the series on MYB it was 0.39.

For AGGUUGACAUACGUUUCCC, the “3' UTR reporter interaction score” value was -0.726 in the series with MYC; 1.09 with NOTCH1; -0.16 in the series on FBXW7; 0.494 in the series with PHOX2B; -0.754 in the series on BRCA2; 0.798 with MYT1L. Moreover, the “3' UTR reporter interaction score” value with ZEB2 is 1.11; with PHF6, 0.251; in the series with MYCN it was -0.377; with HRAS it was -1.43; in the series with EZH2, -0.54; in the series on RB1, 0.54. Also, the results for the “3' UTR reporter interaction score” value in the series on TP53 and with MYB were -0.178 and 0.862, respectively.

Turning to AGGACCUGCGGGACAAGAUUCUU, the “3' UTR reporter interaction score” value with MYC was -0.0464; with NOTCH1 it was 0.243; with FBXW7 it was -0.188; with PHOX2B, 1.33; with BRCA2 it was 0.115; in the series on MYT1L it was -0.0205. Besides, the “3' UTR reporter interaction score” value in the series with ZEB2 was 0.526; in the series with PHF6, -0.476; in the series with MYCN it was -0.207; with HRAS, -0.0697; in the series with EZH2, -0.425; in the series on RB1, 0.102. Further, the figures for the “3' UTR reporter interaction score” value in the series on TP53 and with MYB were -0.45 and 0.35, respectively.

Take AUAAGACGAGCAAAAAGCUUGU: the “3' UTR reporter interaction score” value was -0.771 in the series with MYC; -0.743 with NOTCH1; 0.133 in the series on FBXW7; -0.501 in the series on PHOX2B; 2.27 in the series on BRCA2; 0.212 in the series with MYT1L. The “3' UTR reporter interaction score” value in the series on ZEB2 is -2.58; with PHF6 it was -0.375; with MYCN it was -0.0307; with HRAS, 0.557; with EZH2, 1.23; in the series with RB1, -1.39. Further, the figures for the “3' UTR reporter interaction score” value in the series with TP53 and in the series with MYB were 0.501 and -1.19, respectively.

In the case of UAAGUGCUUCCAUGUUUCAGUGG, the “3' UTR reporter interaction score” value in the series on MYC was -0.0462; in the series with NOTCH1 it was 0.788; in the series with FBXW7, 0.421; with PHOX2B, -0.0319; in the series with BRCA2 it was 0.202; in the series with MYT1L, -1.46. In addition, the “3' UTR reporter interaction score” value with ZEB2 is 0.969; in the series with PHF6 it was 0.57; in the series on MYCN, 0.305; in the series on HRAS, 0.114; in the series with EZH2 it was -0.665; in the series with RB1, 0.571. The “3' UTR reporter interaction score” value is -0.245 in the series on TP53 and -0.991 in the series with MYB.

Take UGGUGCGGAGAGGGCCCACAGUG: the “3' UTR reporter interaction score” value in the series with MYC is -0.919; in the series with NOTCH1 it was 0.612; in the series with FBXW7, 0.508; in the series with PHOX2B, 0.217; in the series on BRCA2, -0.582; in the series on MYT1L, 1.6. The “3' UTR reporter interaction score” value is 0.607 in the series with ZEB2; 0.575 in the series with PHF6; 0.131 with MYCN; -0.688 in the series with HRAS; -0.738 with EZH2; 0.451 in the series with RB1. Moreover, the “3' UTR reporter interaction score” value was -0.894 in the series with TP53 and -0.475 in the series with MYB.
